Source: PMC10447463, “Data-mining unveils structure–property–activity correlation of viral infectivity enhancing self-assembling peptides” (Nature Communications, 2023)
Values joined by “and” are separate entries in the source; they are usually repeats but may differ in a detail not shown here. Identical values can stand only once. Like-named read-outs stand apart in the source and are kept apart here.

Key:
[1] = Turbidity, derived count rate of scattered light; format: physicochemical; settings: for Count Rate / kcps: derived count rate of scattered light at 633 nm, 173°, from zeta-potential measurement, 0.1 mg/mL in 1 mM KCl after 1 d at 1 mg/mL in PBS, turbidity / microscopic aggregation, mean of triplicate; for Zeta Count Rate: peptides with TEM 2cat 0
Procedure, shortened: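 One-day room-temperature aggregation at 1 mg/mL in PBS (pH 7.4) preceded measurement; samples then went into 1 mM KCl. Triplicates per sample, two independent experiments averaged.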

[2] = Turbidity, derived count rate of scattered light; format: physicochemical; settings: for Count Rate: derived count rate of scattered light (turbidity); for Log10 Count Rate: turbidity, derived count rate of scattered light, data of Figure 2D
[3] = format: physicochemical; parameters: key to Fibril / Fibril Formation / TEM 2cat / Fibril: 1 = fibrils present; 0 non-fibrillar structures; settings: for Fibril / Fibril Formation: 1 mg/mL, uranyl acetate stain, qualitative
[4] = Log10 of derived count rate of scattered light (turbidity)
[5] = log10 of derived count rate of scattered light (turbidity)
[6] = turbidity, Log10 of derived count rate of scattered light, Figure 3A source data
[7] = Fig S10 panel D, fibril category by TEM
[8] = TEM, 1 = fibrils present, 0 = non-fibrillar
[9] = TEM, 1 = fibrils present, 0 = non-fibrillar structures
[10] = category: fibrils present or non-fibrillar
[11] = FigS12 panel A, fibril category by TEM
[12] = logarithm of count rate in kcps
[13] = turbidity, log10 of derived count rate of scattered light

RGDCKIKIQINM
Log10 Count Rate [1, 4]: 3.2102
Count Rate / kcps [1]: 1623 kcps
Log10 Count Rate [1, 5]: 3.2102
Log10 Count Rate [1, 6]: 3.2102
Count Rate [2]: 1623
Log10 Count Rate [2]: 3.2102
TEM 2cat [3, 7]: 1
Fibril / Fibril Formation ([3]; TEM): 1
Fibril [3, 8]: 1
Fibril [3, 9]: 1
TEM 2cat [3, 10]: 1

HHHHKAKAKAKAWWWW
Log10 Count Rate [1, 4]: 2.8188
Count Rate / kcps [1]: 659 kcps
Log10 Count Rate [1, 5]: 2.8188
Log10 Count Rate [1, 6]: 2.8188
Count Rate [2]: 658.9
Log10 Count Rate [2]: 2.8188
TEM 2cat [3, 7]: 0
TEM 2cat [3, 11]: 0
Fibril ([3]; FigS12 panel B, TEM): 0
Fibril / Fibril Formation ([3]; TEM): 0
Fibril [3, 8]: 0
Fibril [3, 9]: 0

KIEIQINM
Log10 Count Rate [1, 4]: 2.439
Count Rate / kcps [1]: 275 kcps
Log10 Count Rate [1, 5]: 2.439
Log10 Count Rate [1, 6]: 2.439
Count Rate [2]: 274.8
Log10 Count Rate [2]: 2.439
TEM 2cat [3, 7]: 1
TEM 2cat [3, 11]: 1
Fibril ([3]; FigS12 panel B, TEM): 1
Fibril / Fibril Formation ([3]; TEM): 1
Fibril [3, 8]: 1
Fibril [3, 9]: 1

CKAKAQANM
Log10 Count Rate [1, 4]: 2.317
Count Rate / kcps [1]: 207 kcps
Log10 Count Rate [1, 12]: 2.3
Log10 Count Rate [1, 6]: 2.317
Log10 Count Rate [1, 13]: 2.317
Count Rate [2]: 207.3
Log10 Count Rate [2]: 2.317
TEM 2cat ([3]; Fig S10 panel D): 0
Fibril ([3]; Fig S10 panel E): 0
TEM 2cat [3, 11]: 0
Fibril ([3]; FigS12 panel B, TEM): 0
Fibril / Fibril Formation ([3]; TEM): 0
Fibril [3, 8]: 0
Fibril [3, 9]: 0

CKFKQFF
Log10 Count Rate [1, 4]: 0.4094
Count Rate / kcps [1]: 3 kcps
Log10 Count Rate [1, 12]: 0.4099
Log10 Count Rate [1, 6]: 0.4094
Log10 Count Rate [1, 13]: 0.4094
Count Rate [2]: 2.567
Log10 Count Rate [2]: 0.4094
TEM 2cat ([3]; Fig S10 panel D): 0
Fibril ([3]; Fig S10 panel E): 0
TEM 2cat [3, 11]: 0
Fibril ([3]; FigS12 panel B, TEM): 0
Fibril / Fibril Formation ([3]; TEM): 0
Fibril [3, 8]: 0
Fibril [3, 9]: 0

KFKFQFNM
Log10 Count Rate [1, 4]: 2.12
Count Rate / kcps [1]: 132 kcps
Log10 Count Rate [1, 6]: 2.12
Log10 Count Rate [1, 13]: 2.12
Count Rate [2]: 131.8
Log10 Count Rate [2]: 2.12
TEM 2cat ([3]; Fig S10 panel D): 1
Fibril ([3]; Fig S10 panel E): 1
Fibril / Fibril Formation ([3]; TEM): 1
Fibril [3, 8]: 1
Fibril [3, 9]: 1
TEM 2cat [3, 10]: 1

CKFKFQFW
Log10 Count Rate [1, 4]: 4.466
Count Rate / kcps [1]: 29211 kcps
Log10 Count Rate [1, 5]: 4.466
Log10 Count Rate [1, 12]: 4.466
Log10 Count Rate [1, 6]: 4.466
Count Rate [2]: 29210.5
Log10 Count Rate [2]: 4.466
TEM 2cat [3, 7]: 1
Fibril ([3]; Fig S10 panel E): 1
Fibril / Fibril Formation ([3]; TEM): 1
Fibril [3, 8]: 1
Fibril [3, 9]: 1
TEM 2cat [3, 10]: 1

CKFKQFFNMWQ
Log10 Count Rate [1, 4]: 3.914
Count Rate / kcps [1]: 8210 kcps
Log10 Count Rate [1, 6]: 3.914
Log10 Count Rate [1, 13]: 3.914
Count Rate [2]: 8210
Log10 Count Rate [2]: 3.914
TEM 2cat ([3]; Fig S10 panel D): 1
Fibril ([3]; Fig S10 panel E): 1
Fibril / Fibril Formation ([3]; TEM): 1
Fibril [3, 8]: 1
Fibril [3, 9]: 1
TEM 2cat [3, 10]: 1

CKIKQIIRGD
Log10 Count Rate [1, 4]: 3.544
Count Rate / kcps [1]: 3495 kcps
Log10 Count Rate [1, 5]: 3.544
Log10 Count Rate [1, 6]: 3.544
Count Rate [2]: 3495
Log10 Count Rate [2]: 3.544
Fibril ([3]; FigS12 panel B, TEM): 0
Fibril / Fibril Formation ([3]; TEM): 0
Fibril [3, 8]: 0
Fibril [3, 9]: 0

KVKVQVV
Log10 Count Rate [1, 4]: 1.443
Count Rate / kcps [1]: 28 kcps
Log10 Count Rate [1, 5]: 1.443
Log10 Count Rate [1, 6]: 1.443
Count Rate [2]: 27.73
Log10 Count Rate [2]: 1.443
TEM 2cat [3, 7]: 0
TEM 2cat [3, 11]: 0
Fibril ([3]; FigS12 panel B, TEM): 0
Fibril / Fibril Formation ([3]; TEM): 0
Fibril [3, 8]: 0
Fibril [3, 9]: 0

CKAKAQA
Log10 Count Rate [1, 4]: 2.56
Count Rate / kcps [1]: 363 kcps
Log10 Count Rate [1, 5]: 2.56
Log10 Count Rate [1, 6]: 2.56
Count Rate [2]: 362.7
Log10 Count Rate [2]: 2.56
TEM 2cat [3, 7]: 0
Fibril ([3]; Fig S10 panel E): 0
TEM 2cat [3, 11]: 0
Fibril ([3]; FigS12 panel B, TEM): 0
Fibril / Fibril Formation ([3]; TEM): 0
Fibril [3, 8]: 0
Fibril [3, 9]: 0

CKFKQFFNM
Log10 Count Rate [1, 4]: 4.436
Count Rate / kcps [1]: 27264 ± 5488 kcps and 27264 kcps
Log10 Count Rate [1, 12]: 4.436
Log10 Count Rate [1, 6]: 4.436
Log10 Count Rate [1, 13]: 4.436
Count Rate [2]: 27264.3
Log10 Count Rate [2]: 4.436
TEM 2cat ([3]; Fig S10 panel D): 1
Fibril / Fibril Formation ([3]; TEM): 1
Fibril [3, 8]: 1
Fibril [3, 9]: 1
TEM 2cat [3, 10]: 1

KFKFQFN
Log10 Count Rate [1, 4]: 1.705
Count Rate / kcps [1]: 51 kcps
Log10 Count Rate [1, 12]: 1.7
Log10 Count Rate [1, 6]: 1.705
Log10 Count Rate [1, 13]: 1.705
Count Rate [2]: 50.7
Log10 Count Rate [2]: 1.705
TEM 2cat ([3]; Fig S10 panel D): 1
TEM 2cat [3, 11]: 1
Fibril ([3]; FigS12 panel B, TEM): 1
Fibril / Fibril Formation ([3]; TEM): 1
Fibril [3, 8]: 1
Fibril [3, 9]: 1

KLKLKLQL
Log10 Count Rate [1, 4]: 1.632
Count Rate / kcps [1]: 43 kcps
Log10 Count Rate [1, 5]: 1.632
Log10 Count Rate [1, 6]: 1.632
Count Rate [2]: 42.87
Log10 Count Rate [2]: 1.632
TEM 2cat [3, 7]: 1
TEM 2cat [3, 11]: 1
Fibril ([3]; FigS12 panel B, TEM): 1
Fibril / Fibril Formation ([3]; TEM): 1
Fibril [3, 8]: 1
Fibril [3, 9]: 1

KIKIKIKIWW
Log10 Count Rate [1, 4]: 3.975
Count Rate / kcps [1]: 9436 kcps
Log10 Count Rate [1, 5]: 3.975
Zeta Count Rate [1]: 9436 kcp
Log10 Count Rate [1, 6]: 3.975
Count Rate [2]: 9436
Log10 Count Rate [2]: 3.975
TEM 2cat [3, 7]: 0
Fibril ([3]; Fig S10 panel E): 0
Fibril / Fibril Formation ([3]; TEM): 0
Fibril [3, 8]: 0
Fibril [3, 9]: 0
TEM 2cat [3, 10]: 0

RGDKIKIQIC
Log10 Count Rate [1, 4]: 3.876
Count Rate / kcps [1]: 7509 kcps
Log10 Count Rate [1, 5]: 3.876
Log10 Count Rate [1, 6]: 3.876
Count Rate [2]: 7509
Log10 Count Rate [2]: 3.876
TEM 2cat [3, 7]: 1
Fibril ([3]; Fig S10 panel E): 1
Fibril / Fibril Formation ([3]; TEM): 1
Fibril [3, 8]: 1
Fibril [3, 9]: 1
TEM 2cat [3, 10]: 1

EIEIQINMWQ
Log10 Count Rate [1, 4]: 3.102
Count Rate / kcps [1]: 1264 kcps
Log10 Count Rate [1, 5]: 3.102
Zeta Count Rate [1]: 1264 kcp
Log10 Count Rate [1, 6]: 3.102
Count Rate [2]: 1264
Log10 Count Rate [2]: 3.102
TEM 2cat [3, 7]: 0
Fibril ([3]; Fig S10 panel E): 0
Fibril / Fibril Formation ([3]; TEM): 0
Fibril [3, 8]: 0
Fibril [3, 9]: 0
TEM 2cat [3, 10]: 0

CKIKIQINM
Log10 Count Rate [1, 4]: 3.626
Count Rate / kcps [1]: 4228 kcps
Log10 Count Rate [1, 5]: 3.626
Log10 Count Rate [1, 6]: 3.626
Count Rate [2]: 4228
Log10 Count Rate [2]: 3.626
TEM 2cat [3, 7]: 1
Fibril ([3]; Fig S10 panel E): 1
Fibril / Fibril Formation ([3]; TEM): 1
Fibril [3, 8]: 1
Fibril [3, 9]: 1
TEM 2cat [3, 10]: 1

CSISIQINM
Log10 Count Rate [1, 4]: 3.517
Count Rate / kcps [1]: 3291 kcps
Log10 Count Rate [1, 5]: 3.517
Log10 Count Rate [1, 6]: 3.517
Count Rate [2]: 3291
Log10 Count Rate [2]: 3.517
TEM 2cat [3, 7]: 1
Fibril ([3]; Fig S10 panel E): 1
Fibril / Fibril Formation ([3]; TEM): 1
Fibril [3, 8]: 1
Fibril [3, 9]: 1
TEM 2cat [3, 10]: 1

QCKIKIQINM
Log10 Count Rate [1, 4]: 3.979
Count Rate / kcps [1]: 9524 kcps
Log10 Count Rate [1, 6]: 3.979
Log10 Count Rate [1, 13]: 3.979
Count Rate [2]: 9524
Log10 Count Rate [2]: 3.979
TEM 2cat ([3]; Fig S10 panel D): 1
Fibril ([3]; Fig S10 panel E): 1
Fibril / Fibril Formation ([3]; TEM): 1
Fibril [3, 8]: 1
Fibril [3, 9]: 1
TEM 2cat [3, 10]: 1

KFKQFFINMWQ
Log10 Count Rate [1, 4]: 3.954
Count Rate / kcps [1]: 8996 kcps
Log10 Count Rate [1, 5]: 3.954
Log10 Count Rate [1, 6]: 3.954
Count Rate [2]: 8996
Log10 Count Rate [2]: 3.954
TEM 2cat [3, 7]: 1
Fibril / Fibril Formation ([3]; TEM): 1
Fibril [3, 8]: 1
Fibril [3, 9]: 1
TEM 2cat [3, 10]: 1

QCKFKQFFNMWQ
Log10 Count Rate [1, 4]: 4.277
Count Rate / kcps [1]: 18911 kcps
Log10 Count Rate [1, 6]: 4.277
Log10 Count Rate [1, 13]: 4.277
Count Rate [2]: 18911.36667
Log10 Count Rate [2]: 4.277
TEM 2cat ([3]; Fig S10 panel D): 1
Fibril ([3]; Fig S10 panel E): 1
Fibril / Fibril Formation ([3]; TEM): 1
Fibril [3, 8]: 1
Fibril [3, 9]: 1
TEM 2cat [3, 10]: 1

KLKLQLL
Log10 Count Rate [1, 4]: 1.861
Count Rate / kcps [1]: 73 kcps
Log10 Count Rate [1, 5]: 1.861
Log10 Count Rate [1, 6]: 1.861
Count Rate [2]: 72.67
Log10 Count Rate [2]: 1.861
TEM 2cat [3, 7]: 1
TEM 2cat [3, 11]: 1
Fibril ([3]; FigS12 panel B, TEM): 1
Fibril / Fibril Formation ([3]; TEM): 1
Fibril [3, 8]: 1
Fibril [3, 9]: 1
